The text below walks through data of ChEMBL document CHEMBL1150972, “Biochemical and cellular effects of c-Src kinase-selective pyrido[2, 3-d]pyrimidine tyrosine kinase inhibitors” (Biochem Pharmacol, 2000).

Experiment [1] concerns the target Fibroblast growth factor receptor 1 (Homo sapiens, UniProt P11362). The experiment is described as follows: Inhibition of bFGFR.
Experiment [2] is filed under the species Homo sapiens. Briefly: Selectivity for c-Src compared to bFGFR.
Experiment [3] is filed under the species Homo sapiens. The experiment is described as follows: Selectivity for c-Src compared to PDGFR.
Experiment [4] concerns HCT-8. Briefly: Inhibition of HCT-8 clonogenic growth in soft agar with pretreatment. The experiment is classed as functional, cell-based. Conditions: Homo sapiens.
In a further experiment the test system is A-431. The experiment is described as follows: Inhibition of 3H-thymidine incorporation into A-431 cells. The experiment is classed as functional, cell-based. As to conditions: Homo sapiens.
The subject of experiment [5] is HT-29. Briefly: Inhibition of HT-29 clonogenic growth in soft agar with pretreatment. Type of experiment: functional, cell-based. As to conditions: Homo sapiens.
Experiment [6] addresses Tyrosine-protein kinase Lck (Homo sapiens, UniProt P06239). Briefly: Inhibition of Lck.
Experiment [7] addresses Proto-oncogene tyrosine-protein kinase Src (Homo sapiens, UniProt P12931). Briefly: Inhibition of c-Src.
Experiment [8] has as its system SW-620. Briefly: Inhibition of SW-620 cell proliferation. The experiment is classed as functional, cell-based. As to conditions: Homo sapiens.
In experiment [9] the test system is SW-620. Briefly: Inhibition of SW-620 clonogenic growth in soft agar with pretreatment. The experiment is classed as functional, cell-based. As to conditions: Homo sapiens.
Experiment [10] deals with Platelet-derived growth factor receptor (Homo sapiens, UniProt P09619+P16234). Briefly: Inhibition of PDGFR. Type of experiment: protein-complex assay.
The test system of experiment [11] is HCT-8. Briefly: Inhibition of HCT-8 clonogenic growth in soft agar without pretreatment. The experiment is classed as functional, cell-based. As to conditions: Homo sapiens.
Experiment [12] has as its system HT-29. Briefly: Inhibition of HT-29 clonogenic growth in soft agar without pretreatment. The experiment is classed as functional, cell-based. As to conditions: Homo sapiens.
Experiment [13] deals with HCT-8. The experiment is described as follows: Inhibition of HCT-8 cell proliferation. The experiment is classed as functional, cell-based. Conditions: Homo sapiens.
For experiment [14], the system named is SW-620. The experiment is described as follows: Inhibition of SW-620 clonogenic growth in soft agar without pretreatment. The experiment is classed as functional, cell-based. Conditions: Homo sapiens.
The subject of another experiment is NIH3T3. The experiment is described as follows: Inhibition of 3H-thymidine incorporation into NIH3T3 cells. Type of experiment: functional, cell-based. As to conditions: Mus musculus.
Experiment [15] relates to HT-29. Briefly: Inhibition of HT-29 cell proliferation. Type of experiment: functional, cell-based. Conditions: Homo sapiens.
Experiment [16] concerns the target Epidermal growth factor receptor (Homo sapiens, UniProt P00533).

Chain of Proto-oncogene tyrosine-protein kinase Src (P12931 2-536 limits assumed): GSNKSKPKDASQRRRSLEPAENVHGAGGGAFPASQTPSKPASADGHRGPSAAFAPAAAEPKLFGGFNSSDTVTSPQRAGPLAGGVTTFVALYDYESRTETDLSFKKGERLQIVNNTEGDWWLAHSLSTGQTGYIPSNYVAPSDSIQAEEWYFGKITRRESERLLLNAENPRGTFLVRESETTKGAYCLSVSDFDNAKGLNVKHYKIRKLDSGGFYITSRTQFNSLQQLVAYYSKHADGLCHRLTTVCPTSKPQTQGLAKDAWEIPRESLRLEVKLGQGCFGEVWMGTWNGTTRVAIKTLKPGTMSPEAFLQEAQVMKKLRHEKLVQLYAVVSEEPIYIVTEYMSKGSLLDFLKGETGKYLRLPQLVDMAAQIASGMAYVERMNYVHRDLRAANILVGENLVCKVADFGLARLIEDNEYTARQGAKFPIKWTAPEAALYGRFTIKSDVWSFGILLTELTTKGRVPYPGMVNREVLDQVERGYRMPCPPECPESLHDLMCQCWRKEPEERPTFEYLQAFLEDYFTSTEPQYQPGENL
Chain of Fibroblast growth factor receptor 1 (P11362 whole entry): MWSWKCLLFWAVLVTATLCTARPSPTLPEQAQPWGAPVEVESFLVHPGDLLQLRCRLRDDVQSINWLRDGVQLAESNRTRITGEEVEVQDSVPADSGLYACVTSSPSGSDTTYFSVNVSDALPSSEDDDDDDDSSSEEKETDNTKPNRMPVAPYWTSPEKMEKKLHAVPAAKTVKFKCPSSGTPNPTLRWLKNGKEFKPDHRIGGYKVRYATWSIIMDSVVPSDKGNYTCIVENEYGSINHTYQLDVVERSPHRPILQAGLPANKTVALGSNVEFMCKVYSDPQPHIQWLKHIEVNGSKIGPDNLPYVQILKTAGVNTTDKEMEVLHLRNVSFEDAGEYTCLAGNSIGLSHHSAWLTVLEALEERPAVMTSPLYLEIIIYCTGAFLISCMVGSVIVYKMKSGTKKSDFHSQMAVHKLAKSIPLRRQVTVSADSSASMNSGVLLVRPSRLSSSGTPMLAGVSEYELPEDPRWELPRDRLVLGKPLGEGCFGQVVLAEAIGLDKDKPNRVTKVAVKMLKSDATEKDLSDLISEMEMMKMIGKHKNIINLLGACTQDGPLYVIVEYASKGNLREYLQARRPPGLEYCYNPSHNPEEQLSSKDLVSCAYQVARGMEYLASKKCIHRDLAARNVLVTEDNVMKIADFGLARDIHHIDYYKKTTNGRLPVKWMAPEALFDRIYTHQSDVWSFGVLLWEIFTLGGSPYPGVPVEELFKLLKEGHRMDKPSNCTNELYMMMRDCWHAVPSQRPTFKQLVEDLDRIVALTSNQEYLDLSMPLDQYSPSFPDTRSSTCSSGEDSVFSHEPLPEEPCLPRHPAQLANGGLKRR
Chain of Tyrosine-protein kinase Lck (P06239 whole entry): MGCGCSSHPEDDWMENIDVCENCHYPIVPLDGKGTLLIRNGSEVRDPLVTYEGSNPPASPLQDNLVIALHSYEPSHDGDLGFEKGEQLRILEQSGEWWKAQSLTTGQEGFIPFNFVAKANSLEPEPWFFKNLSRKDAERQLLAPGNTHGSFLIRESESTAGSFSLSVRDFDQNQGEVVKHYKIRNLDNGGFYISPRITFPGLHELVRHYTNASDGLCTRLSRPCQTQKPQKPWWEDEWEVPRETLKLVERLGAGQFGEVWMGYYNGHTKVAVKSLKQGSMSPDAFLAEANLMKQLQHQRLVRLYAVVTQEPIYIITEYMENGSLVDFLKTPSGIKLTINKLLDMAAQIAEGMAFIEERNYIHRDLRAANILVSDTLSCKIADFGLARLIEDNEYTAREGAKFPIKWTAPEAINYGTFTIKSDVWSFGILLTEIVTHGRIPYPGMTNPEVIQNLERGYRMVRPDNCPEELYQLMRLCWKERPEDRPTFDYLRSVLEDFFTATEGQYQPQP
Chain of Epidermal growth factor receptor (P00533 whole entry): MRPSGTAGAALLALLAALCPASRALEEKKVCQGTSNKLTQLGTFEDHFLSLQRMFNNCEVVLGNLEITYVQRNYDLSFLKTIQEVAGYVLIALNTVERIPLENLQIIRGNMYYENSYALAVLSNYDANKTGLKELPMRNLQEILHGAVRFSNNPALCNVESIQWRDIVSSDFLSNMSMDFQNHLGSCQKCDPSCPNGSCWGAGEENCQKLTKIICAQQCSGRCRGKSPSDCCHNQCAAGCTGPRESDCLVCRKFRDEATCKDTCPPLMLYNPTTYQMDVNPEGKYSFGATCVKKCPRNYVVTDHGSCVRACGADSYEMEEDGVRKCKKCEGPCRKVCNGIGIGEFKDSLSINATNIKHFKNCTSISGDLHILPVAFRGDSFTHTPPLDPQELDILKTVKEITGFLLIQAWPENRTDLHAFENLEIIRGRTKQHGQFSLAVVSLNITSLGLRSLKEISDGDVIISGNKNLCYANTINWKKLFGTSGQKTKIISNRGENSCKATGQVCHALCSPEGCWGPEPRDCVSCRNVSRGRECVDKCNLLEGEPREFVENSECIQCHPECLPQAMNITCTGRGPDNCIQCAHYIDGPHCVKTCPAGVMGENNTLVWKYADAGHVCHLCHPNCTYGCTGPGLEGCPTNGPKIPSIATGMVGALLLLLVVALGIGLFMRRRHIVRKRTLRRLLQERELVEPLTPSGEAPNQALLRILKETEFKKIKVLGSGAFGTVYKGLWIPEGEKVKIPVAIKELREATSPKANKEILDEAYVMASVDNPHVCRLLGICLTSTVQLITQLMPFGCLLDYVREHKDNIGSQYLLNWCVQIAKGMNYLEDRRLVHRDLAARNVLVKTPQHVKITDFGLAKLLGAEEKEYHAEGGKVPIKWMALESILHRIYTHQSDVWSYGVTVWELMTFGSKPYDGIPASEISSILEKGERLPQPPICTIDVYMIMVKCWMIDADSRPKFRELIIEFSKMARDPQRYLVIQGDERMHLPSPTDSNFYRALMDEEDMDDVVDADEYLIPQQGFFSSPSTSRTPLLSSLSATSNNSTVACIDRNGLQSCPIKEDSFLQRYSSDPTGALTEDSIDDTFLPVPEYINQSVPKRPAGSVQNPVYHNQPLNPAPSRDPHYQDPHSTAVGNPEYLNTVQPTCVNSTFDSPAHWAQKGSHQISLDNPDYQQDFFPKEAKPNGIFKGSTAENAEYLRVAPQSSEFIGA

Regarding `CCOc1ccc(Nc2ncc3cc(-c4c(Cl)cccc4Cl)c(=O)n(C)c3n2)cc1`, the IC50 is 451 nM in experiment [1]; 3220 nM with HCT-8 [4]; 445 nM with A-431; 750 nM in the experiment on HT-29 [5]; less than 5 nM in [6]; 16.3 nM in experiment [7]. The IC50 in the experiment with SW-620 [8] is 660 nM; in the experiment on SW-620 [9], 460 nM; in experiment [10], 2340 nM; in the experiment on HCT-8 [11], 1260 nM; in the experiment with HT-29 [12] it was 1010 nM; in the experiment on HCT-8 [13], 1150 nM. Moreover, the IC50 in the experiment on SW-620 [14] worked out at 360 nM; with NIH3T3, 382 nM; with HT-29 [15], 579 nM. Besides, the Ratio in the experiment filed under Homo sapiens [2] came to 27.7; in the experiment filed under Homo sapiens [3], 144.
As for `Cn1c(=O)c(-c2c(Cl)cccc2Cl)cc2cnc(Nc3ccc(N4CCOCC4)cc3)nc21`, the IC50 in experiment [1] is 98.8 nM; in the experiment with HCT-8 [4], 1380 nM; in the experiment on A-431, 245 nM; with HT-29 [5], 1210 nM; in experiment [6], less than 5 nM; in experiment [7], 8.35 nM. Besides, the IC50 in the experiment with SW-620 [9] was determined as 530 nM; in experiment [10], 636 nM; in the experiment with HCT-8 [11], 1260 nM; in the experiment with HT-29 [12], 1370 nM; in the experiment on SW-620 [14] it was 470 nM; in the experiment on NIH3T3, 170 nM. Further, the Ratio was 11.8 in the experiment filed under Homo sapiens [2] and 76.2 in the experiment filed under Homo sapiens [3].
On to `Cn1c(=O)c(-c2c(Cl)cccc2Cl)cc2cnc(Nc3ccc(F)cc3)nc21`, for which the half-inhibitory concentration (IC50) in the experiment on HT-29 [5] is 1530 nM; in experiment [6] it was less than 5 nM; with SW-620 [8], 619 nM; with SW-620 [9], 1550 nM; in the experiment on HCT-8 [11], 1150 nM; with HT-29 [12], 1540 nM. The IC50 in the experiment on HCT-8 [13] was 662 nM; with SW-620 [14] it was 402 nM; with HT-29 [15] it was 617 nM.
For `CCN(CCOc1ccc(Nc2ncc3cc(-c4c(Cl)cccc4Cl)c(=O)n(C)c3n2)cc1)C(C)=O`, the IC50 in experiment [1] was 244 nM; in the experiment on HCT-8 [4] it was greater than 5000 nM; in the experiment with HT-29 [5] it was 1740 nM; in experiment [6], less than 5 nM; in [7], 9.03 nM; in the experiment with SW-620 [8] it was 156 nM. Also, the IC50 in experiment [10] is 463 nM; with HCT-8 [11], greater than 5000 nM; in the experiment on HT-29 [12], less than 5000 nM; with HCT-8 [13], 1000 nM; with HT-29 [15], 266 nM. The Ratio worked out at 27 in the experiment filed under Homo sapiens [2] and 51.2 in the experiment listed under Homo sapiens [3].
With `CSc1cccc(Nc2ncc3cc(-c4c(Cl)cccc4Cl)c(=O)n(C)c3n2)c1`, the half-inhibitory concentration (IC50) in experiment [1] is 1250 nM; with HCT-8 [4] it was 2520 nM; in the experiment on HT-29 [5], 1210 nM; in [6], less than 5 nM; with SW-620 [8], 924 nM; in the experiment on SW-620 [9], 1130 nM. Further, the IC50 in the experiment on HCT-8 [11] turned out to be 1300 nM; in the experiment on HT-29 [12] it was 1290 nM; with HCT-8 [13], 1130 nM; with SW-620 [14], 980 nM; in the experiment on HT-29 [15], 810 nM.
Take `Cc1cc(Nc2ncc3cc(-c4c(Cl)cccc4Cl)c(=O)n(C)c3n2)ccc1F`: the IC50 in experiment [1] is 934 nM; in the experiment with HCT-8 [4], 610 nM; in the experiment on A-431, 215 nM; with HT-29 [5], 464 nM; in experiment [6] it was less than 5 nM; in experiment [7], 16.8 nM. The IC50 in the experiment on SW-620 [8] was 285 nM; in [10], 1430 nM; in the experiment on HCT-8 [11], 260 nM; in the experiment on HT-29 [12], 1520 nM; in the experiment on HCT-8 [13], 450 nM; in the experiment with NIH3T3, 170 nM. Besides, the results for the IC50 (with HT-29 [15]; in [16]) were 461 nM and 390 nM, respectively. Further, the Ratio in the experiment filed under Homo sapiens [2] came out at 55.6; in the experiment filed under Homo sapiens [3] it was 84.9.

A word on the IC50: it is the concentration that inhibits the measured activity by half.
